In PubChem BioAssay AID256 (DTP/NCI, 2004):
Several values for one entry are separate records, joined by “and”; a condition that tells them apart may be missing. Identical values can stand only once. Inconclusive results and toxic doses are left out. Rule for the calls: active = survival T/C of 150% or more; inactive = T/C below 125% in these data.

Test system: CD2F1 mice, L1210 leukemia ip, survival T/C
Assay: NCI In Vivo Anticancer Drug Screen. Data for tumor model L1210 Leukemia (intraperitoneal) in CD2F1 (CDF1) mice
Settings: endpoint: mean survival time, higher = longer survival
Method in brief: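 In this screen, transplantable tumors were grown in mice given either the compound or its vehicle. Results were expressed as the treated measurement relative to the control measurement.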

[1] = dose: 100.0 mg/kg/injection, schedule: Q01DX001 (ip), vehicle: saline
[2] = dose: 200.0 mg/kg/injection, schedule: Q01DX001 (ip), vehicle: saline
[3] = dose: 400.0 mg/kg/injection, schedule: Q01DX001 (ip), vehicle: saline
[4] = dose: 100.0 mg/kg/injection, schedule: Q04DX003 (ip), vehicle: saline with Tween-80
[5] = dose: 200.0 mg/kg/injection, schedule: Q04DX003 (ip), vehicle: saline with Tween-80

Measured: T/C

CN(Cc1ccc(C#N)cc1)N=Nc1ccc(C(=O)O)cc1
inactive: dose: 25.0 mg/kg/injection, schedule: Q01DX009 (ip), vehicle: other 106 % of control | dose: 50.0 mg/kg/injection, schedule: Q01DX009 (ip), vehicle: other 87 % of control | dose: 100.0 mg/kg/injection, schedule: Q01DX009 (ip), vehicle: other 106 % of control | dose: 200.0 mg/kg/injection, schedule: Q01DX009 (ip), vehicle: other 102 % of control | dose: 400.0 mg/kg/injection, schedule: Q01DX009 (ip), vehicle: other 120 % of control

CC(=O)OC1COC(n2cnc3c(=S)nc[nH]c32)C(OC(C)=O)C1OC(C)=O (stereo not drawn)
inactive: [1] 97 % of control | [2] 102 % of control | [3] 100 % of control

C/C(=C\c1ccc(Cl)c(Cl)c1)[N+](=O)[O-]
inactive: [1] 104 % of control | [2] 109 % of control | [3] 111 % of control

O=C(O)c1ccccc1C(=O)c1cccc2ccccc12
inactive: [4] 104 % of control | [5] 96 % of control

CS/C([S-])=N/N=C/c1ccccn1.[Cl][Pt+]
inactive: [4] 94 % of control | [5] 100 % of control

CCCCCCCCN(C)N=Nc1ccccc1
inactive: dose: 79.0 mg/kg/injection, schedule: Q01DX009 (ip), vehicle: Klucel (hydroxypropylcellulose) (HPC) 110 % of control | dose: 177.0 mg/kg/injection, schedule: Q01DX009 (ip), vehicle: Klucel (hydroxypropylcellulose) (HPC) 124 % of control | dose: 266.0 mg/kg/injection, schedule: Q01DX009 (ip), vehicle: Klucel (hydroxypropylcellulose) (HPC) 122 % of control

CSc1ncnc2c1ccn2C1OC(COP(=O)(O)O)C(O)C1O (stereo not drawn)
inactive: dose: 12.5 mg/kg/injection, schedule: Q01DX005 (ip), vehicle: water 105 % of control | dose: 25.0 mg/kg/injection, schedule: Q01DX005 (ip), vehicle: water 108 % of control and 111 % of control | dose: 50.0 mg/kg/injection, schedule: Q01DX005 (ip), vehicle: water 114 % of control and 109 % of control | dose: 150.0 mg/kg/injection, schedule: Q01DX005 (ip), vehicle: water 121 % of control

C/C=C(\Br)C(=O)O
inactive: dose: 25.0 mg/kg/injection, schedule: Q04DX002 (ip), vehicle: saline with Tween-80 101 % of control | dose: 50.0 mg/kg/injection, schedule: Q04DX002 (ip), vehicle: saline with Tween-80 101 % of control | dose: 100.0 mg/kg/injection, schedule: Q04DX002 (ip), vehicle: saline with Tween-80 104 % of control

CNc1nc(N)nc2nonc12
inactive: dose: 12.5 mg/kg/injection, schedule: Q01DX005 (ip), vehicle: other 98 % of control | dose: 25.0 mg/kg/injection, schedule: Q01DX005 (ip), vehicle: other 98 % of control | dose: 50.0 mg/kg/injection, schedule: Q01DX005 (ip), vehicle: other 95 % of control | dose: 100.0 mg/kg/injection, schedule: Q01DX005 (ip), vehicle: other 86 % of control | dose: 200.0 mg/kg/injection, schedule: Q01DX005 (ip), vehicle: other 89 % of control

O=C1CC2C3C=CC4C3CC2C14 (stereo not drawn)
inactive: dose: 75.0 mg/kg/injection, schedule: Q01DX001 (ip), vehicle: saline with Tween-80 97 % of control | dose: 150.0 mg/kg/injection, schedule: Q01DX001 (ip), vehicle: saline with Tween-80 101 % of control

O=C1C2C3C=CC(C3)C2C(=NS(=O)(=O)c2ccccc2)C2C3C=CC(C3)C12 (stereo not drawn)
inactive: dose: 100.0 mg/kg/injection, schedule: Q04DX003 (ip), vehicle: Klucel (hydroxypropylcellulose) (HPC) 91 % of control | dose: 200.0 mg/kg/injection, schedule: Q04DX003 (ip), vehicle: Klucel (hydroxypropylcellulose) (HPC) 93 % of control | dose: 400.0 mg/kg/injection, schedule: Q04DX003 (ip), vehicle: Klucel (hydroxypropylcellulose) (HPC) 91 % of control

O=C(CCl)c1ccc(O)c(O)c1
inactive: dose: 6.25 mg/kg/injection, schedule: Q04DX003 (ip), vehicle: saline 94 % of control | dose: 12.5 mg/kg/injection, schedule: Q04DX003 (ip), vehicle: saline 92 % of control | dose: 25.0 mg/kg/injection, schedule: Q04DX003 (ip), vehicle: saline 92 % of control
